# From article PMC10607100, “Anticancer and Antiphytopathogenic Activity of Fluorinated Isatins and Their Water-Soluble Hydrazone Derivatives” (International Journal of Molecular Sciences, 2023)
# Where two headings read alike, the source gives them in different places.
# Assays:
# [1] = test system: M-HeLa; experiment: MTT cell viability test, M-HeLa; assay type: cell-based, human; conditions: Homo sapiens, M-HeLa; incubation time 24 h
# Protocol: (§1) Human cell cultures of tumor origin—HeLa (cervical tumor), HuTu 80 (human duodenal adenocarcinoma), ChangLiver (human liver HeLa-like line), and normal cell line WI38, VA 13 subline 2RA is a diploid human cell strain composed of fibroblasts derived from healthy lung tissue provided by The Gamaleya National Center for Epidemiology and Microbiology, as well as the Institute of Cytology of the Russian Academy of Sciences. They were grown in a nutrient medium DMEM (PanEco, Moscow, Russia) and MEM (PanEco, Moscow, Russia), containing fetal bovine serum (10% by volume) (ThermoFisher Scientific, Paisley, UK), Glutamax (2 mM) (Gibco, Scotland, UK), and penicillin-streptomycin (1% by volume) (PanEco, Moscow, Russia). The cultivation was carried out at 37 °C in a humidified CO2 atmosphere (5%).
# (§2) Cell viability was determined by the MTT test. Cells were seeded in a 96-well plate in the amount of 1 × 10^4 cells/200 µL of complete nutrient medium and cultured at 37 °C in CO2 (5%). After 24 h of incubation, various concentrations of test compounds in the range of 0.1 to 100 μM were added to the cell cultures, and then the cells were cultured under the same conditions for 24 and 72 h. For each concentration, the experiment was carried out in triplicate.
# (§3) All compounds were dissolved in DMSO and then diluted with the medium to the required concentration. […] The DMSO was also added to the control wells in a volume of 1%. After the incubation time, MTT (3-(4,5-dimethylthiazol-2-yl)-2,5-diphenyltetrazolium bromide, 5 mg/mL) was added to each well, and plates were additionally incubated for 2 h (until the characteristic color appeared).
# (§4) Using a plate analyzer (Cytation3, BioTech Instruments Inc., Winooski, VT, USA), the optical density was determined at 530 nm.
# (§5) The IC50 parameter was calculated using the AAT Bioquest program.
# (§6) The selectivity index (SI) is calculated as the ratio between the IC50 for normal cells and the IC50 for cancer cells.
# [2] = test system: HuTu 80; experiment: MTT cell viability test, HuTu 80; assay type: cell-based, human; conditions: Homo sapiens, HuTu80; incubation time 24 h
# Protocol: as §1, §2, §3, §4, §5, §6
# [3] = test system: Chang Liver; experiment: MTT cell viability test, Chang liver; assay type: cell-based; conditions: Homo sapiens, incubation time 24 h
# Protocol: as §1, §2, §3, §4, §5
# [4] = test system: Fusarium oxysporum IBPPM 543; experiment: Mycelial radial growth inhibition; assay type: cell-based; conditions: Fusarium oxysporum; for inhibition at 10 µg/mL / inhibition at 15 µg/mL / inhibition at 30 µg/mL / inhibition at 60 µg/mL: read-out: Inhibition value, I (%)
# Excerpt: (§7) Plant pathogenic bacterial strains Micrococcus luteus B-109, Pectobacterium atrosepticum 1043, Pectobacterium carotovorum subsp. carotovorum MI, Pseudomonas fluorescens EL-2.1, and Xanthomonas campestris B-610 and the fungal strain Fusarium oxysporum IBPPM 543 were from the Collection of Rhizosphere Microorganisms, IBPPM RAS (WFCC no. 975, WDCM no. 1021) (CM IBPPM, http://collection.ibppm.ru). The pathogenic fungus Phytophthora cactorum VKM F-985, provided by the All-Russian Collection of Microorganisms (VKM) and deposited at the A.E. Favorsky Irkutsk Institute of Chemistry, SB RAS, was also used as a test organism. Bacteria M. luteus, P. carotovorum subsp. carotovorum, P. atrosepticum, and P. fluorescens were grown in a meat–peptone medium (BP), and X. campestris was grown in the medium with glucose, yeast extract, and calcium carbonate (GYCa). Solid media contained Bacto agar (18 g/L); pH was adjusted to 7.2–7.4. All bacterial cultures were grown at 28 °C. The mycelial cultures of F. oxysporum and P. cactorum were grown on a glucose–peptone–yeast (GPY) nutrient medium at 27 °C. For inoculum preparation, both fungal strains were initially grown on the agar GPY in Petri dishes and then transferred into the seed medium by punching out 5 mm of the agar plate culture with a self-designed cutter.
# (§8) For the fungicidal activity analysis, radial growth (colony diameters) of the fungi on a solid medium in the absence and in the presence of the compounds 5a–e and 7a–c solutions at various concentrations were compared. The method consisted of the following: A sterile GPY agar medium (20.0 mL), which was melted and then allowed to cool to approximately 60 °C, was mixed with the precisely measured volumes of the solutions under question and poured into a sterile Petri dish (90 mm i.d.). After the solidification of GPY agar, the media were inoculated by the fungus using 10-day-old cultures of F. oxysporum or P. cactorum. The inoculation was conducted by transferring a 5-mm (i.d.) GPY-agar block covered with mycelium to the center of the Petri dish, followed by incubation in a thermostat at 27 °C. The fungicidal effect was scored by the size of the mycelium colony on a Petri dish compared to the control without fungicidal admixtures to GPY agar. Each treatment was performed in at least four replicates in two independent experiments. The observation period ended when the control Petri dish was filled with mycelium (usually after 12 days). […] The solutions of the compounds were prepared with a concentration of 2 mmol/L (stock solution). For comparison, test compounds were also commonly applied as disinfecting agents, and antibiotics were used as a positive control.
# [5] = test system: Phytophthora cactorum VKM F-985; experiment: Mycelial radial growth inhibition; assay type: cell-based; conditions: Phytophthora cactorum; for inhibition at 10 µg/mL / inhibition at 15 µg/mL / inhibition at 30 µg/mL / inhibition at 60 µg/mL: read-out: Inhibition value, I (%)
# Excerpt: as §7, §8
# [6] = test system: Micrococcus luteus B-109; experiment: Agar-well diffusion, bactericidal activity; assay type: cell-based
# Excerpt: as §7
# (§9) The antibacterial and antifungal activities of the compounds were explored using the agar-well diffusion method and the technique of mycelial radial growth inhibition. The method of diffusion in agar (measuring the diameter of growth inhibition zones) was used to determine the bactericidal activity. The 6-mm wells were made in agar medium (GYCa for Xanthomonas campestris or BP for other bacteria). Bacterial suspensions were distributed over the agar surface, and the tested compound’s solution (150 μL) was added to each well. The width of growth inhibition zones around the wells was determined after incubation for 36–40 h.
# [7] = test system: Pectobacterium atrosepticum 1043; experiment: Agar-well diffusion, bactericidal activity; assay type: cell-based
# Excerpt: as §7, §9
# [8] = test system: Pectobacterium carotovorum subsp. carotovorum MI; experiment: Agar-well diffusion, bactericidal activity; assay type: cell-based
# Excerpt: as §7, §9
# [9] = test system: Pseudomonas fluorescens EL-2.1; experiment: Agar-well diffusion, bactericidal activity; assay type: cell-based
# Excerpt: as §7, §9
# [10] = test system: Xanthomonas campestris B-610; experiment: Agar-well diffusion, bactericidal activity; assay type: cell-based
# Protocol: Bacteria M. luteus, P. carotovorum subsp. carotovorum, P. atrosepticum, and P. fluorescens were grown in a meat–peptone medium (BP), and X. campestris was grown in the medium with glucose, yeast extract, and calcium carbonate (GYCa). Solid media contained Bacto agar (18 g/L); pH was adjusted to 7.2–7.4. […] For inoculum preparation, both fungal strains were initially grown on the agar GPY in Petri dishes and then transferred into the seed medium by punching out 5 mm of the agar plate culture with a self-designed cutter.
# as §9
smiles,measurement,setting,value
"CC(C)(C)c1ccc(CN2C(=O)C(=O)c3cc(F)ccc32)cc1 [Compound 4c, 1-(4-(tert-Butyl)benzyl)-5-fluoroindoline-2,3-dione]",IC50,[1],> 100 µM
same,IC50,[2],43 ± 3 µM
same,IC50,[3],92.1 ± 7.4 µM
same,melting point,,123 to 124 °C
"N#Cc1c[nH]cc1-c1cccc2c1OC(F)(F)O2 [Fludioxonil, fludioxonil, reference compound]",inhibition at 10 µg/mL,"[4]; IBPPM543, 72 h",18%
same,inhibition at 15 µg/mL,"[4]; IBPPM543, 72 h",21%
same,inhibition at 30 µg/mL,"[4]; IBPPM543, 72 h",26%
same,inhibition at 60 µg/mL,"[4]; IBPPM543, 72 h",32%
same,EC50,"[4]; IBPPM543, 120 h, read-out: EC50, µg/mL at Day 5, F. oxysporum",83.3 µg/mL
same,inhibition at 10 µg/mL,"[4]; IBPPM543, 120 h",23%
same,inhibition at 15 µg/mL,"[4]; IBPPM543, 120 h",30%
same,inhibition at 30 µg/mL,"[4]; IBPPM543, 120 h",33%
same,inhibition at 60 µg/mL,"[4]; IBPPM543, 120 h",35%
same,inhibition at 10 µg/mL,"[4]; IBPPM543, 168 h",6%
same,inhibition at 15 µg/mL,"[4]; IBPPM543, 168 h",20%
same,inhibition at 30 µg/mL,"[4]; IBPPM543, 168 h",23%
same,inhibition at 60 µg/mL,"[4]; IBPPM543, 168 h",25%
same,inhibition at 10 µg/mL,"[4]; IBPPM543, 216 h",4%
same,inhibition at 15 µg/mL,"[4]; IBPPM543, 216 h",5%
same,inhibition at 30 µg/mL,"[4]; IBPPM543, 216 h",8%
same,inhibition at 60 µg/mL,"[4]; IBPPM543, 216 h",9%
same,inhibition at 10 µg/mL,[5]; 72 h,36%
same,inhibition at 15 µg/mL,[5]; 72 h,38%
same,inhibition at 30 µg/mL,[5]; 72 h,40%
same,inhibition at 60 µg/mL,[5]; 72 h,52%
same,EC50,"[5]; 120 h, read-out: EC50, µg/mL at Day 5, P. cactorum",29.5 µg/mL
same,inhibition at 10 µg/mL,[5]; 120 h,38%
same,inhibition at 15 µg/mL,[5]; 120 h,46%
same,inhibition at 30 µg/mL,[5]; 120 h,51%
same,inhibition at 60 µg/mL,[5]; 120 h,57%
same,inhibition at 10 µg/mL,[5]; 168 h,35%
same,inhibition at 15 µg/mL,[5]; 168 h,42%
same,inhibition at 30 µg/mL,[5]; 168 h,46%
same,inhibition at 60 µg/mL,[5]; 168 h,49%
same,inhibition at 10 µg/mL,[5]; 216 h,9%
same,inhibition at 15 µg/mL,[5]; 216 h,17%
same,inhibition at 30 µg/mL,[5]; 216 h,23%
same,inhibition at 60 µg/mL,[5]; 216 h,29%
"CCn1cc(C(=O)O)c(=O)c2cc(F)c(N3CCNCC3)cc21 [Norfloxacin, norfloxacin, reference compound]",zone of inhibition at 500 µg/mL,"[6]; Micrococcus luteus, B109, 500 μg/mL, read-out: width of the inhibition zone (mm), M. luteus",7 mm
same,zone of inhibition at 500 µg/mL,"[7]; Pectobacterium atrosepticum, 1043, 500 μg/mL, read-out: width of the inhibition zone (mm), P. atrosepticum",7 mm
same,zone of inhibition at 500 µg/mL,"[8]; Pectobacterium carotovorum, 500 μg/mL, read-out: width of the inhibition zone (mm), P. carotovorum subsp. carotovorum",8 mm
same,zone of inhibition at 500 µg/mL,"[9]; Pseudomonas fluorescens, EL2.1, 500 μg/mL, read-out: width of the inhibition zone (mm), Ps. fluorescens",8 mm
same,zone of inhibition at 500 µg/mL,"[10]; Xanthomonas campestris, B610, read-out: width of the inhibition zone (mm), X. campestris",7 mm
"Cc1ccc2c(c1)C(=O)C(=O)N2Cc1cccc(C(F)(F)F)c1 [Compound 4e, 5-Methyl-1-(3-(trifluoromethyl)benzyl)indoline-2,3-dione]",IC50,[1],94 ± 7.5 µM
same,IC50,[2],53.2 ± 3.9 µM
same,IC50,[3],> 100 µM
same,melting point,,155 to 156 °C
"Cc1cc(C)cc(CN2C(=O)C(=O)c3cc(F)ccc32)c1 [Compound 4b, 1-(3,5-Dimethylbenzyl)-5-fluoroindoline-2,3-dione]",IC50,[1],58.8 ± 4.4 µM
same,IC50,[2],50 ± 3.8 µM
same,IC50,[3],63.2 ± 5.5 µM
same,melting point,,97 to 98 °C
"[Na+].[O-]Cl [sodium hypochlorite, reference compound]","width of the inhibition zone (mm), M. luteus",[6]; 1000 μg/mL,2.5 mm
same,"width of the inhibition zone (mm), P. atrosepticum",[7]; 1000 μg/mL,4 mm
same,"width of the inhibition zone (mm), P. carotovorum subsp. carotovorum",[8]; 1000 μg/mL,3 mm
same,"width of the inhibition zone (mm), Ps. fluorescens",[9]; 1000 μg/mL,4 mm
same,"width of the inhibition zone (mm), X. campestris",[10]; 1000 μg/mL,4 mm
"O=C1C(=O)N(Cc2c(F)cccc2F)c2ccc(F)cc21 [Compound 3c, 1-(2,6-Difluorobenzyl)-5-fluoroindoline-2,3-dione]",IC50,[1],65.7 ± 5.9 µM
same,IC50,[2],41.2 ± 2.7 µM
same,IC50,[3],95.5 ± 8 µM
same,melting point,,131 to 132 °C
"Cc1ccc(CN2C(=O)C(=O)c3cc(F)ccc32)cc1 [Compound 4a, 5-Fluoro-1-(4-methylbenzyl)indoline-2,3-dione]",IC50,[1],44.7 ± 3.3 µM
same,IC50,[2],44 ± 2.9 µM
same,IC50,[3],80 ± 5.8 µM
same,melting point,,111 to 112 °C
